Marks after values point to notes of the source that are not given here.
Key:
[1] = tested on: human submandibular gland epithelial cell line (HSG); assay: RTCA cell proliferation after single X-ray irradiation with drugs; type: cell-based; settings: Table 5 and FIG. 7
Excerpt: 2) The proliferation plate were taken out, and the medium was refreshed. […] The cells were subjected to single X-ray (RAD SOURCE 2000) irradiation at a dose of 1.22 gy/min and a total dose of 2 gy.
3) After irradiation, detection was continuously carried out.

AQP5 = AQP5 expression level in submandibular gland acinar cells (immunofluorescence); type: in vivo; settings: SD rats, 8 weeks after radiotherapy
Excerpt: The immunofluorescence staining photographs (×20 under microscope) of the paraffin sections of the submandibular gland of the rats in each experimental group at 8 weeks after radiotherapy, and the quantitation results of the expression levels of AQP5 in the submandibular gland acinar cells in each group were shown in FIG. 10 and Table 8.

rat salivary gland = assay: Salivary flow rate of rats before and after radiotherapy; settings: SD rats
[2] = Nitrate content in the blood of mice after single gastric gavage; type: in vivo; settings: ICR mice, 2 mmol/kg sodium nitrate single gastric gavage
Experimental: A total of 40 ICR mice (male, 20±4 g) were randomly divided into 4 groups of 10 mice each. […] Blood was collected from vena caudalis at 0 h, and 2, 4, 6, 12, and 24 h after gastric gavage, respectively.

[3] = tested on: submandibular gland acinar cells; assay: Vacuole area in submandibular gland acinar cells (HE staining); type: in vivo; settings: SD rats, high dose 40.5 mM, 8 weeks after radiotherapy
Excerpt: At 8 weeks after radiotherapy, the micrographs (×40) of the HE stained submandibular gland tissues of the rats in each experimental group were shown in FIG. 9A on the right of the panel of FIG. 9. See FIG. 9B on the left of the panel of FIG. 9.

[4] = Nitrate content in saliva of rats after radiotherapy; type: in vivo; settings: SD rats, 4 and 8 weeks after radiotherapy
[5] = tested on: human submandibular gland epithelial cell line (HSG); assay: RTCA cell proliferation after addition of drugs (no irradiation); settings: microcapsules 0.25 mM, nitrate 0.5 mM
[6] = HE staining of sections of major organs (heart, liver, spleen, lung, kidney); settings: SD rats
[7] = Serum biochemical detection at 8 weeks after radiotherapy; settings: SD rats, 8 weeks after submandibular gland irradiation
[8] = high dose 40.5 mM in drinking water
[9] = low dose 20.25 mM in drinking water

## O=C1O[C@H]([C@@H](O)CO)C(O)=C1O [Vc, vitamin C]
[1]
  effect on proliferation of submandibular gland epithelial cells after single irradiation: promote the proliferation

## O=[N+]([O-])[O-].[Na+] [Sodium nitrate, sodium nitrate]
AQP5; high dose 40.5 mM
  expression level of AQP5 versus IR group: significantly different
AQP5; low dose 20.25 mM
  expression level of AQP5 versus IR group: significantly different
Rat salivary gland; high dose 40.5 mM in drinking water, 1 W after radiotherapy
  salivary flow rate: 0.48 ± 0.25 ml/20 min
Rat salivary gland; high dose 40.5 mM in drinking water, 2 W after radiotherapy
  salivary flow rate: 1.12 ± 0.20^a ml/20 min
Rat salivary gland; high dose 40.5 mM in drinking water, 4 W after radiotherapy
  salivary flow rate: 0.91 ± 0.17^a ml/20 min
Rat salivary gland; high dose 40.5 mM in drinking water, 6 W after radiotherapy
  salivary flow rate: 0.80 ± 0.09^a ml/20 min
Rat salivary gland; high dose 40.5 mM in drinking water, 8 W after radiotherapy
  salivary flow rate: 0.81 ± 0.13 ml/20 min
Rat salivary gland; high dose 40.5 mM in drinking water, first column 1 W (1 week before radiotherapy)
  salivary flow rate: 1.37 ± 0.24 ml/20 min
Rat salivary gland; low dose 20.25 mM in drinking water, 1 W after radiotherapy
  salivary flow rate: 0.60 ± 0.25 ml/20 min
Rat salivary gland; low dose 20.25 mM in drinking water, 2 W after radiotherapy
  salivary flow rate: 0.95 ± 0.01^a ml/20 min
Rat salivary gland; low dose 20.25 mM in drinking water, 4 W after radiotherapy
  salivary flow rate: 0.82 ± 0.21^a ml/20 min
Rat salivary gland; low dose 20.25 mM in drinking water, 6 W after radiotherapy
  salivary flow rate: 0.74 ± 0.12 ml/20 min
Rat salivary gland; low dose 20.25 mM in drinking water, 8 W after radiotherapy
  salivary flow rate: 0.76 ± 0.09 ml/20 min
Rat salivary gland; low dose 20.25 mM in drinking water, first column 1 W (1 week before radiotherapy)
  salivary flow rate: 1.34 ± 0.26 ml/20 min
[2]; 0 h
  Nitrate content in the blood: 41.8 µmol/L
[2]; 2 h
  Nitrate content in the blood: 1052.8 µmol/L
[2]; 4 h
  Nitrate content in the blood: 572.4 µmol/L
[2]; 6 h
  Nitrate content in the blood: 297.4 µmol/L
[2]; 12 h
  Nitrate content in the blood: 45.3 µmol/L
[2]; 24 h
  Nitrate content in the blood: 32.7 µmol/L
[3]
  vacuole area in submandibular gland acinar cells as compared with IR group: significantly decreased
[4]
  nitrate content in saliva, course after administration: relatively stable
[1]
  effect on proliferation of submandibular gland epithelial cells after single irradiation: promote the proliferation
[5]
  effect on proliferation of submandibular gland epithelial cells under normal conditions: promote the proliferation
[6]; continuous administration of 40.5 mM for 9 weeks
  effect on the organs in the body of the rats: no significant effect
[6]; high dose 40.5 mM, 8 weeks after radiotherapy, FIG. 12
  abnormality in the major organs, HE stained sections: no abnormality
[7]; [8]
  ALP: 112.00 ± 19.69 U/L
  ALT: 49.20 ± 10.30 U/L
  AST: 116.20 ± 9.44 U/L
  Alb: 8.66 ± 0.87 g/L
  Ca: 2.41 ± 0.14 mmol/L
  Cr: 46.7 ± 14.59 µmol/L
  D-Bil: 1.8 ± 1.21 µmol/L
  GGT: 5.00 ± 0.71 U/L
  Glb: 45.42 ± 3.88 g/L
  HDL-C: 2.09 ± 0.43 mmol/L
  I-Bil: 1.73 ± 1.57 µmol/L
  K: 5.10 ± 0.45 mmol/L
  LDH: 747.40 ± 165.67 U/L
  LDL-C: 0.24 ± 0.06 mmol/L
  Na: 141.66 ± 1.62 mmol/L
  P: 2.77 ± 1.01 mmol/L
  T-Bil: 3.52 ± 2.00 µmol/L
  TC: 1.87 ± 0.38 mmol/L
  TCO2: 30.12 ± 3.07 mmol/L
  TG: 0.31 ± 0.38 mmol/L
  TP: 54.08 ± 4.11 g/L
  Urea: 5.78 ± 1.21 mmol/L
[7]; [9]
  ALP: 95.00 ± 52.85 U/L
  ALT: 46.60 ± 16.80 U/L
  AST: 123.80 ± 38.49 U/L
  Alb: 8.20 ± 1.32 g/L
  Ca: 2.39 ± 0.09 mmol/L
  Cr: 47.82 ± 12.95 µmol/L
  D-Bil: 1.43 ± 0.40 µmol/L
  GGT: 5.60 ± 0.89 U/L
  Glb: 44.68 ± 1.80 g/L
  HDL-C: 2.13 ± 0.71 mmol/L
  I-Bil: 1.43 ± 1.07 µmol/L
  K: 5.31 ± 0.48 mmol/L
  LDH: 1212.44 ± 728.19 U/L
  LDL-C: 0.27 ± 0.06 mmol/L
  Na: 140.72 ± 1.47 mmol/L
  P: 2.37 ± 0.22 mmol/L
  T-Bil: 2.52 ± 1.37 µmol/L
  TC: 2.05 ± 0.71 mmol/L
  TCO2: 30.26 ± 2.68 mmol/L
  TG: 0.57 ± 0.42 mmol/L
  TP: 52.88 ± 2.40 g/L

Source: patent US20250228785A1, “MICROCAPSULE, PREPARATION METHOD THEREFOR, AND USE THEREOF IN PREVENTING AND/OR TREATING DAMAGE TO SALIVARY GLANDS CAUSED BY RADIATION THERAPY” (CAPITAL MEDICAL UNIVERSITY, priority 2021, published 2025)
